The subject of series [1] is Escherichia coli. The series is described as follows: Antibacterial activity against Escherichia coli incubated for 24 hrs by agar dilution method. The format is functional. On the technique in general: In agar dilution the substance is mixed into plates at graded concentrations.
Series [2] in a line: Cytotoxicity against African green monkey Vero cells assessed as cell growth inhibition at 6.25 ug/ml incubated for 72 hrs by MTT assay relative to control. The format is cell-based. The following applies: chlorocebus sabaeus, read-out: GI. On the technique in general: Tetrazolium dyes change colour on reduction, which living cells bring about.
In series [3] the test system is Mycobacterium tuberculosis. The series is described as follows: Antibacterial activity against Mycobacterium tuberculosis H37Rv ATCC 27294 assessed as reduction in mycobacterial growth incubated for 5 days by MABA method. The class given is functional. The settings on record: H37Rv ATCC 27294, 120 h. (Resazurin is reduced to fluorescent resorufin, in cell work by metabolically active cells.)

Series [4] has as its system Mycobacterium tuberculosis. Briefly: Potency index, ratio of streptomycin MIC to test compound MIC against Mycobacterium tuberculosis H37Rv ATCC 27294. The format is functional.
Series [5] concerns Staphylococcus aureus. The series is described as follows: Antibacterial activity against Staphylococcus aureus incubated for 24 hrs by agar dilution method. The class given is functional.
Series [6] can be described thus: Selectivity index, ratio of IC50 for African green monkey Vero cells to MIC for Mycobacterium tuberculosis H37Rv ATCC 27294. The class given is toxicity. The settings on record: read-out: Selectivity Index.
In series [7] the test system is Mycobacterium tuberculosis. Briefly: Potency index, ratio of ciprofloxacin MIC to test compound MIC against Mycobacterium tuberculosis H37Rv ATCC 27294. The format is functional.
Series [8] deals with Vero. Briefly: Cytotoxicity against African green monkey Vero cells assessed as reduction in cell viability incubated for 72 hrs by MTT assay. The class given is cell-based. The settings on record: Chlorocebus sabaeus.
In series [9] the test system is Pseudomonas aeruginosa. Briefly: Antibacterial activity against Pseudomonas aeruginosa incubated for 24 hrs by agar dilution method. The class given is functional.
Series [10] has as its system Mycobacterium tuberculosis. Briefly: Potency index, ratio of pyrazinamide MIC to test compound MIC against Mycobacterium tuberculosis H37Rv ATCC 27294. The format is functional.
Series [11] deals with Mycobacterium tuberculosis. Briefly: Antibacterial activity against Mycobacterium tuberculosis H37Rv infected in Swiss albino mouse assessed as log reduction in bacterial burden in lungs at 26 mg/kg, po administered via gavage starting from 6 weeks post infection measured after 3 to 4 weeks co-treated with isoniazid. The format is functional.
Series [12] relates to Mycobacterium tuberculosis. Briefly: Antibacterial activity against Mycobacterium tuberculosis H37Rv infected in Swiss albino mouse assessed as log reduction in bacterial burden in spleen at 26 mg/kg, po administered via gavage starting from 6 weeks post infection measured after 3 to 4 weeks co-treated with rifampicin. The format is functional.
Series [13] concerns Mycobacterium tuberculosis. The series is described as follows: Antibacterial activity against Mycobacterium tuberculosis H37Rv infected in Swiss albino mouse assessed as log reduction in bacterial burden in spleen at 26 mg/kg, po administered via gavage starting from 6 weeks post infection measured after 3 to 4 weeks co-treated with isoniazid. The class given is functional.

Series [14] relates to Mycobacterium tuberculosis. The series is described as follows: Antibacterial activity against Mycobacterium tuberculosis H37Rv infected in Swiss albino mouse assessed as log reduction in bacterial burden in lungs at 26 mg/kg, po administered via gavage starting from 6 weeks post infection measured after 3 to 4 weeks co-treated with rifampicin. The class given is functional.

Values after ≈ are worked out from the molar mass of the structure shown.

For orientation: MIC means the lowest concentration found to suppress growth. Broadly, the IC50 is the concentration needed to halve the response being measured. On to `N#Cc1ccc(Cn2cc(CN3c4ccccc4Sc4cc(/C=N/NC(=O)c5ccc(F)cc5)ccc43)nn2)cc1`, for which the MIC in [1] was found to be 12.5 µg/mL (≈ 22.3 µM); in series [3], 2.85 µM (≈ 1.59 µg/mL); in series [5], 6.25 µg/mL (≈ 11.2 µM); in [9], 12.5 µg/mL (≈ 22.3 µM). Moreover, in series [2], the inhibition at 72 h, 6.25 ug/ml amounted to 11.4%. Besides, the Ratio in series [4] was 4; in [7], 4; in [10], 2. In addition, the selectivity ratio in [6] came to 66.3. The IC50 in [8] was found to be 758 µg/mL (≈ 1350 µM).
Turning to `N#Cc1ccc(Cn2cc(CN3c4ccccc4Sc4cc(/C=N/NC(=O)c5cnccn5)ccc43)nn2)cc1`, the minimum inhibitory concentration (MIC) came to 50 µg/mL (≈ 92 µM) in series [1], 2.94 µM (≈ 1.6 µg/mL) in series [3], 50 µg/mL (≈ 92 µM) in series [5] and 100 µg/mL (≈ 184 µM) in [9]. Further, in series [2], the inhibition at 72 h, 6.25 ug/ml worked out at 12.3%. Further, the values for the Ratio in series [4], in series [7] and in series [10] were 4, 4 and 2, respectively. Moreover, in series [6], the selectivity ratio was 195. Also, the IC50 in [8] was determined as 2400 µg/mL (≈ 4420 µM).
Take `N#Cc1ccc(Cn2cc(CN3c4ccccc4Sc4cc(/C=N/NC(=O)c5ccc([N+](=O)[O-])cc5)ccc43)nn2)cc1`: the MIC in series [1] came to 50 µg/mL (≈ 85.2 µM); in series [3], 2.72 µM (≈ 1.6 µg/mL); in series [5] it was 25 µg/mL (≈ 42.6 µM); in [9] it was 50 µg/mL (≈ 85.2 µM). For the same compound, the inhibition at 72 h, 6.25 ug/ml in [2] worked out at 7.57%. The Ratio is given as 4 in [4], 4 in [7] and 2 in series [10]. The selectivity ratio in series [6] is 91.5. In series [8], the IC50 turned out to be 693 µg/mL (≈ 1180 µM).
Turning to `N#Cc1ccc(Cn2cc(CN3c4ccc(/C=N/NC(=O)c5ccc([N+](=O)[O-])cc5)cc4Sc4ccc(C(F)(F)F)cc43)nn2)cc1`, the MIC was found to be 50 µg/mL (≈ 76.4 µM) in series [1], 2.44 µM (≈ 1.6 µg/mL) in [3], 25 µg/mL (≈ 38.2 µM) in series [5] and 50 µg/mL (≈ 76.4 µM) in series [9]. Besides, the inhibition at 72 h, 6.25 ug/ml in series [2] is 8.91%. The Ratio was 4 in series [4], 4 in series [7] and 2 in series [10]. Further, the selectivity ratio in series [6] worked out at 126. Besides, the IC50 in [8] worked out at 1130 µg/mL (≈ 1720 µM).
For `N#Cc1ccc(Cn2cc(CN3c4ccc(/C=N/NC(=O)c5ccncc5)cc4Sc4ccc(C(F)(F)F)cc43)nn2)cc1`, the MIC turned out to be 50 µg/mL (≈ 81.9 µM) in series [1], 2.62 µM (≈ 1.6 µg/mL) in series [3], 50 µg/mL (≈ 81.9 µM) in series [5] and 100 µg/mL (≈ 164 µM) in series [9]. In addition, in [2], the inhibition at 72 h, 6.25 ug/ml stood at 7.14%. Also, the results for the Ratio in series [4], in [7] and in series [10] were 4, 4 and 2, respectively. For the same compound, the selectivity ratio in [6] amounted to 207. In addition, the IC50 in series [8] turned out to be 1480 µg/mL (≈ 2420 µM).
With `N#Cc1ccc(Cn2cc(CN3c4ccc(/C=N/NC(=O)c5cnccn5)cc4Sc4ccc(C(F)(F)F)cc43)nn2)cc1`, the MIC in [1] came out at 50 µg/mL (≈ 81.8 µM); in [3], 2.61 µM (≈ 1.6 µg/mL); in [5] it was 50 µg/mL (≈ 81.8 µM); in series [9], 100 µg/mL (≈ 164 µM). Also, the inhibition at 72 h, 6.25 ug/ml in [2] stood at 11.6%. In addition, the Ratio in series [4] stood at 4; in series [7], 4; in [10], 2. For the same compound, the selectivity ratio in series [6] came out at 183. In series [8], the IC50 was determined as 2110 µg/mL (≈ 3450 µM).
Take `N#Cc1ccc(Cn2cc(CN3c4ccccc4Sc4cc(/C=N/NC(=O)c5ccncc5)ccc43)nn2)cc1`: the MIC in series [1] amounted to 25 µg/mL (≈ 46.1 µM); in [3] it was 2.94 µM (≈ 1.6 µg/mL); in series [5], 12.5 µg/mL (≈ 23 µM); in [9], 25 µg/mL (≈ 46.1 µM). For the same compound, the inhibition at 72 h, 6.25 ug/ml in series [2] was 5.13%. For the same compound, the Ratio is 4 in series [4], 4 in series [7] and 2 in series [10]. In addition, the selectivity ratio in [6] worked out at 253. Besides, the IC50 in [8] worked out at 1300 µg/mL (≈ 2390 µM).
For `N#Cc1ccc(Cn2cc(CN3c4ccccc4Sc4cc(/C=N/NC(=O)c5ccccc5)ccc43)nn2)cc1`, the minimal inhibitory concentration (MIC) was 25 µg/mL (≈ 46.2 µM) in series [1], 2.95 µM (≈ 1.6 µg/mL) in series [3], 12.5 µg/mL (≈ 23.1 µM) in series [5] and 25 µg/mL (≈ 46.2 µM) in series [9]. The inhibition at 72 h, 6.25 ug/ml in [2] amounted to 13.4%. The Ratio in series [4] is reported as 4; in series [7] it was 4; in series [10], 2. For the same compound, the selectivity ratio in series [6] was found to be 32.3. Besides, in series [8], the IC50 worked out at 434 µg/mL (≈ 802 µM).
For the compound `N#Cc1ccc(Cn2cc(CN3c4ccc(/C=N/NC(=O)c5cccnc5)cc4Sc4ccc(C(F)(F)F)cc43)nn2)cc1`, the minimum inhibitory concentration (MIC) in series [1] was determined as 100 µg/mL (≈ 164 µM); in series [3], 2.62 µM (≈ 1.6 µg/mL); in series [5], 50 µg/mL (≈ 81.9 µM); in [9], 100 µg/mL (≈ 164 µM). For the same compound, in series [2], the inhibition at 72 h, 6.25 ug/ml came to 7.32%. For the same compound, the Ratio in series [4] is recorded as 4; in [7] it was 4; in series [10], 2. Also, in [6], the selectivity ratio was determined as 115. Moreover, the IC50 in [8] is 845 µg/mL (≈ 1380 µM).
On to `CSc1ccc2c(c1)N(CCC1CCCCN1C)c1ccccc1S2` (centres undefined) [THIORIDAZINE], for which the Activity in series [11], in series [12], in series [13] and in [14] was over 1 log10CFU throughout.

Source of the values: ChEMBL document CHEMBL4390659, “Molecular hybridization approach for phenothiazine incorporated 1,2,3-triazole hybrids as promising antimicrobial agents: Design, synthesis, molecular docking and in silico ADME studies” (Eur J Med Chem, 2019).
